Data as given in the NIST ThermoML archive (doi:10.1016/j.jct.2004.06.009).
Numbers after ± are expanded uncertainties.

Assay: molar heat capacity at constant pressure
Details: 101.33 kPa

CC12CC3CC(C1)CC(C)(C3)C2 [1,3-dimethyladamantane]
Details | molar heat capacity at constant pressure [J/K/mol]
164.17 K, Crystal 2 | 123.65 ± 1.3
165.15 K, Crystal 2 | 125.01 ± 1.3
166.14 K, Crystal 2 | 125.6 ± 1.3
167.12 K, Crystal 2 | 126.03 ± 1.3
168.11 K, Crystal 2 | 127.28 ± 1.3
169.09 K, Crystal 2 | 127.61 ± 1.3
170.07 K, Crystal 2 | 128.22 ± 1.3
171.06 K, Crystal 2 | 129.42 ± 1.3
172.04 K, Crystal 2 | 130.05 ± 1.3
173.02 K, Crystal 2 | 130.24 ± 1.3
174 K, Crystal 2 | 130.98 ± 1.3
174.98 K, Crystal 2 | 131.94 ± 1.3
175.95 K, Crystal 2 | 133.61 ± 1.3
177.89 K, Crystal 2 | 134.48 ± 1.3
178.87 K, Crystal 2 | 134.87 ± 1.3
179.85 K, Crystal 2 | 135.66 ± 1.3
180.58 K, Crystal 2 | 136.61 ± 1.4
181.56 K, Crystal 2 | 136.89 ± 1.4
182.53 K, Crystal 2 | 137.98 ± 1.4
183.51 K, Crystal 2 | 138.41 ± 1.4
184.48 K, Crystal 2 | 139.16 ± 1.4
185.46 K, Crystal 2 | 140.28 ± 1.4
186.43 K, Crystal 2 | 141.09 ± 1.4
187.4 K, Crystal 2 | 142.02 ± 1.4
189.35 K, Crystal 2 | 143.47 ± 1.4
190.3 K, Crystal 2 | 143.86 ± 1.4
194.17 K, Crystal 2 | 146.97 ± 1.4
195.13 K, Crystal 2 | 148.03 ± 1.4
197.07 K, Crystal 2 | 149.99 ± 1.4
198.04 K, Crystal 2 | 150.21 ± 1.4
198.92 K, Crystal 2 | 151.08 ± 1.4
199.88 K, Crystal 2 | 152.08 ± 1.4
201.81 K, Crystal 2 | 154.34 ± 1.4
202.78 K, Crystal 2 | 154.59 ± 1.4
203.74 K, Crystal 2 | 155.44 ± 1.4
204.71 K, Crystal 2 | 156.27 ± 1.4
205.67 K, Crystal 2 | 156.84 ± 1.4
206.64 K, Crystal 2 | 157.68 ± 1.4
207.51 K, Crystal 2 | 158.4 ± 1.4
208.55 K, Crystal 2 | 158.98 ± 1.4
209.51 K, Crystal 2 | 160.26 ± 1.4
210.47 K, Crystal 2 | 161.38 ± 1.4
211.43 K, Crystal 2 | 162.2 ± 1.4
212.27 K, Crystal 2 | 162.95 ± 1.4
213.23 K, Crystal 2 | 163.97 ± 1.5
214.19 K, Crystal 2 | 164.82 ± 1.5
215.15 K, Crystal 2 | 165.6 ± 1.5
216.12 K, Crystal 2 | 166.3 ± 1.5
217.08 K, Crystal 2 | 166.99 ± 1.5
218.03 K, Crystal 2 | 167.93 ± 1.5
218.99 K, Crystal 2 | 169.35 ± 1.5
219.95 K, Crystal 2 | 170.97 ± 1.5
225.79 K, Crystal 1 | 199.33 ± 1.6
226.66 K, Crystal 1 | 199.97 ± 1.6
227.53 K, Crystal 1 | 201.06 ± 1.6
228.4 K, Crystal 1 | 201.46 ± 1.6
230.04 K, Crystal 1 | 202.98 ± 1.6
230.88 K, Crystal 1 | 203.84 ± 1.9
230.9 K, Crystal 1 | 202.87 ± 1.9
231.76 K, Crystal 1 | 203.35 ± 1.6
232.42 K, Crystal 1 | 205.24 ± 1.6
233.95 K, Crystal 1 | 206.13 ± 1.6
235.48 K, Crystal 1 | 207.28 ± 1.6
237 K, Crystal 1 | 208.26 ± 1.6
238.51 K, Crystal 1 | 209.76 ± 1.6
240.02 K, Crystal 1 | 210.33 ± 1.6
241.45 K, Crystal 1 | 210.84 ± 1.6
242.96 K, Crystal 1 | 212.78 ± 1.6
244.46 K, Crystal 1 | 214.29 ± 1.7
251.29 K, Liquid | 225.79 ± 1.7
252.68 K, Liquid | 226.58 ± 1.7
254.08 K, Liquid | 227.55 ± 1.7
255.49 K, Liquid | 228.41 ± 1.7
256.89 K, Liquid | 229.48 ± 1.7
258.3 K, Liquid | 230.29 ± 1.7
259.7 K, Liquid | 231 ± 1.7
261.1 K, Liquid | 232.08 ± 1.7
262.5 K, Liquid | 232.76 ± 1.7
263.89 K, Liquid | 233.85 ± 1.7
265.29 K, Liquid | 235.31 ± 1.7
266.68 K, Liquid | 235.54 ± 1.7
268.08 K, Liquid | 236.58 ± 1.8
269.46 K, Liquid | 237.84 ± 1.8
270.85 K, Liquid | 239.09 ± 1.8
272.24 K, Liquid | 239.93 ± 1.8
273.56 K, Liquid | 240.47 ± 1.8
274.94 K, Liquid | 241.87 ± 1.8
277.72 K, Liquid | 243.58 ± 1.8
279.1 K, Liquid | 244.65 ± 1.8
280.48 K, Liquid | 245.61 ± 1.8
281.85 K, Liquid | 246.79 ± 1.8
283.23 K, Liquid | 247.54 ± 1.8
284.61 K, Liquid | 248.53 ± 1.8
285.98 K, Liquid | 249.45 ± 1.8
287.36 K, Liquid | 250.28 ± 1.8
288.73 K, Liquid | 251.39 ± 1.8
290.1 K, Liquid | 252.27 ± 1.8
291.46 K, Liquid | 253.18 ± 1.8
292.84 K, Liquid | 254.46 ± 1.8
294.2 K, Liquid | 254.72 ± 1.8
295.48 K, Liquid | 256.04 ± 1.8
296.85 K, Liquid | 256.83 ± 1.8
298.22 K, Liquid | 258.31 ± 1.8
299.58 K, Liquid | 259.27 ± 1.8
300.95 K, Liquid | 260.05 ± 1.8
302.3 K, Liquid | 260.79 ± 1.8
303.66 K, Liquid | 261.66 ± 1.9
306.37 K, Liquid | 263.51 ± 1.9
307.73 K, Liquid | 264.36 ± 1.9
309.08 K, Liquid | 265.4 ± 1.9
310.42 K, Liquid | 266.59 ± 1.9
311.76 K, Liquid | 267.05 ± 1.9
313.08 K, Liquid | 268.41 ± 1.9
314.41 K, Liquid | 269.34 ± 1.9
315.76 K, Liquid | 270.21 ± 1.9
317 K, Liquid | 270.69 ± 1.9
318.33 K, Liquid | 272.36 ± 1.9
319.67 K, Liquid | 272.93 ± 1.9
321.02 K, Liquid | 273.59 ± 1.9
322.36 K, Liquid | 274.52 ± 1.9
323.7 K, Liquid | 275.69 ± 1.9
325.04 K, Liquid | 276.85 ± 1.9
326.38 K, Liquid | 276.96 ± 1.9
327.72 K, Liquid | 278.17 ± 1.9
329.06 K, Liquid | 279.49 ± 1.9
330.4 K, Liquid | 280.25 ± 1.9
331.73 K, Liquid | 281.52 ± 1.9
334.39 K, Liquid | 283.43 ± 1.9
335.72 K, Liquid | 284.46 ± 1.9
337.04 K, Liquid | 285.09 ± 1.9
338.23 K, Liquid | 285.9 ± 1.9
339.56 K, Liquid | 286.67 ± 1.9
340.88 K, Liquid | 287.92 ± 1.9
342.17 K, Liquid | 289.16 ± 2
343.47 K, Liquid | 290.19 ± 2
344.79 K, Liquid | 291.02 ± 2
346.09 K, Liquid | 292.18 ± 2
347.39 K, Liquid | 292.25 ± 2
348.71 K, Liquid | 293.14 ± 2
350.02 K, Liquid | 294.11 ± 2
351.34 K, Liquid | 294.99 ± 2
352.65 K, Liquid | 295.66 ± 2
353.96 K, Liquid | 296.46 ± 2
355.26 K, Liquid | 297.51 ± 2
356.57 K, Liquid | 298.73 ± 2
357.86 K, Liquid | 298.97 ± 2
359 K, Liquid | 299.74 ± 2
